# In US7812047B2, “4-imidazolines” (Hoffman-La Roche Inc., priority 2007, dated 2010):
# Molecular target: T1, TAAR1 (Mus musculus, UniProt Q923Y8)
# T1 construct: expressed in transfected cells; host or cells: HEK293 cells (ATCC CRL-1573), stably transfected with pIRESneo2 expression plasmid; membranes prepared
# Test: Radioligand binding assay on membranes of HEK293 cells stably expressing TAAR1
# Conditions: mouse TAAR1; radioligand [3H]-rac-2-(1,2,3,4-tetrahydro-1-naphthyl)-2-imidazoline, 4° C., 30 min
# Protocol: For the construction of expression plasmids the coding sequences of human, rat and mouse TAAR 1 were amplified from genomic DNA essentially as described by Lindemann et al.. The Expand High Fidelity PCR System (Roche Diagnostics) was used with 1.5 mM Mg^2+ and purified PCR products were cloned into pCR2.1-TOPO cloning vector (Invitrogen) following the instructions of the manufacturer. PCR products were subcloned into the pIRESneo2 vector (BD Clontech, Palo Alto, Calif.), and expression vectors were sequence verified before introduction in cell lines.
# HEK293 cells (ATCC # C.RL-1573) were cultured essentially as described Lindemann et al. (2005). For the generation of stably transfected cell lines HEK293 cells were transfected with the pIRESneo2 expression plasmids containing the TAAR coding sequences (described above) with Lipofectamine 2000 (Invitrogen) according to the instructions of the manufacturer, and 24 hrs post transfection the culture medium was supplemented with 1 mg/ml G418 (Sigma, Buchs, Switzerland). After a culture period of about 10 d clones were isolated, expanded and tested for responsiveness to trace amines (all compounds purchased from Sigma) with the cAMP Biotrak Enzyme immunoassay (EIA) System (Amersham) following the non-acetylation EIA procedure provided by the manufacturer.
# Cells at confluence were rinsed with ice-cold phosphate buffered saline without Ca^2+ and Mg^2+ containing 10 mM EDTA and pelleted by centrifugation at 1000 rpm for 5 min at 4° C. The pellet was then washed twice with ice-cold phosphate buffered saline and cell pellet was frozen immediately by immersion in liquid nitrogen and stored until use at −80° C. Cell pellet was then suspended in 20 ml HEPES-NaOH (20 mM), pH 7.4 containing 10 mM EDTA, and homogenized with a Polytron (PT 3000, Kinematica) at 10,000 rpm for 10 s. The homogenate was centrifuged at 48,000×g for 30 min at 4° C. and the pellet resuspended in 20 ml HEPES-NaOH (20 mM), pH 7.4 containing 0.1 mM EDTA (buffer A), and homogenized with a Polytron at 10,000 rpm for 10 s. The homogenate was then centrifuged at 48,000×g for 30 min at 4° C. and the pellet resuspended in 20 ml buffer A, and homogenized with a Polytron at 10,000 rpm for 10 s. Protein concentration was determined by the method of Pierce (Rockford, Ill.). The homogenate was then centrifuged at 48,000×g for 10 min at 4° C., resuspended in HEPES-NaOH (20 mM), pH 7.0 including MgCl2 (10 mM) and […] homogenized with a Polytron at 10,000 rpm for 10 s.
# Binding assay was performed at 4° C. in a final volume of 1 ml, and with an incubation time of 30 min. The radioligand [^3H]-rac-2-(1,2,3,4-tetrahydro-1-naphthyl)-2-imidazoline was used at a concentration equal to the calculated Kd value of 60 nM to give a bound at around 0.1% of the total added radioligand concentration, and a specific binding which represented approximately 70-80% of the total binding. Non-specific binding was defined as the amount of [^3H]-rac-2-(1,2,3,4-tetrahydro-1-naphthyl)-2-imidazoline bound in the presence of the appropriate unlabelled ligand (10 μM). Competing ligands were tested in a wide range of concentrations […]. […] Each experiment was performed in duplicate. All incubations were terminated by rapid filtration through UniFilter-96 plates (Packard Instrument Company) and glass filter GF/C, pre-soaked for at least 2 h in polyethylenimine 0.3%, and using a Filtermate 96 Cell Harvester (Packard Instrument Company). The tubes and filters were then washed 3 times with 1 ml aliquots of cold buffer B. Filters were not dried and soaked in Ultima gold (45 μl/well, Packard Instrument Company) and bound radioactivity was counted by a TopCount Microplate Scintillation Counter (Packard Instrument Company).
# T1 sequence (Q923Y8 whole entry): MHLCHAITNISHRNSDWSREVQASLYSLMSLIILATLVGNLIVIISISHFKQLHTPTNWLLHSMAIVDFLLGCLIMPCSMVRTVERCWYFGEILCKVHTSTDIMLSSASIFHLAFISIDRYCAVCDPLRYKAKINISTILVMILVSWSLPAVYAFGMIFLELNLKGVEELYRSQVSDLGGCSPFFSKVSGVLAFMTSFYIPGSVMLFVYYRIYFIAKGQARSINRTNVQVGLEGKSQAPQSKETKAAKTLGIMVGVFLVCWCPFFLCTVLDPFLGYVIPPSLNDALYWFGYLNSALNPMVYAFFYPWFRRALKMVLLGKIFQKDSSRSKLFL
row,Ki,SMILES
1,0.005 µM,"C1=NC(Cc2cccc3ccccc23)CN1 (racemic) [Example 2, rac-4-Naphthalen-1-ylmethyl-4,5-dihydro-1H-imidazole or tautomer]"
2,0.06 µM,"C1=NC(CCc2ccccc2)CN1 (racemic) [Example 3, rac-4-Phenethyl-4,5-dihydro-1H-imidazole or tautomer]"
3,0.253 µM,"CCN(CC1CN=CN1)c1ccccc1 (racemic) [Example 4, rac-(4,5-Dihydro-3H-imidazol-4-ylmethyl)-ethyl-phenyl-amine or tautomer]"
4,0.182 µM,"CN(CC1CN=CN1)c1ccccc1 (stereo not shown) [Example 7, (4,5-Dihydro-3H-imidazol-4-ylmethyl)-methyl-phenyl-amine or tautomer]"
5,0.327 µM,"Clc1ccc(CCC2CNC=N2)cc1 (racemic) [Example 10, rac-4-[2-(4-Chloro-phenyl)-ethyl]-4,5-dihydro-1H-imidazole or tautomer]"
6,0.078 µM,"CCc1cccc2cccc(CC3CNC=N3)c12 (racemic) [Example 6, (RS)-4-(8-Ethyl-naphthalen-1-ylmethyl)-4,5-dihydro-1H-imidazole or tautomer]"

# Same assay, conditions: radioligand binding assay; species not stated; read-out: calculated Kd value of the radioligand
row,SMILES,Kd
1,"c1ccc2c(c1)CCCC2C1=NCCN1 (racemic) [[^3H]-rac-2-(1,2,3,4-tetrahydro-1-naphthyl)-2-imidazoline, reference compound]",60 nM
